Laboratory results taken from ChEMBL document CHEMBL2016508, “Synthesis and biological activity of bi/tricyclic azasugars fused thiazolidin-4-one and thiazinan-4-one by microwave-assisted tandem Staudinger/aza-Wittig/cyclization” (2012).
Activity calls are given as the source filed them. The calls are words filed in the database; no cut-off is given here.

Columns and labels:
YAC-1 [1] = assay: Immunopotentiating activity in Balb/C mouse NK cells assessed as induction of killing activity against YAC-1 cells at 5 uM after 4 hrs by MTT assay; assay type: functional
T-cell [2] = assay: Effect on proliferation of Balb/C mouse T cells at 50 uM after 72 hrs by MTT assay; assay type: functional, cell-based
Saccharomyces cerevisiae = assay: Inhibition of yeast alpha-glucosidase using PNPG as substrate at 100 uM preincubated for 10 mins prior substrate addition measured after 10 mins by UV-Vis spectrophotometry
Prunus dulcis = assay: Inhibition of almonds beta-glucosidase using D-(-)salicin as substrate at 100 uM preincubated for 10 mins prior substrate addition measured after 10 mins by UV-Vis spectrophotometry
T-cell [3] = assay: Effect on proliferation of Balb/C mouse T cells at 5 uM after 72 hrs by MTT assay; assay type: functional, cell-based
YAC-1 [4] = assay: Immunopotentiating activity in Balb/C mouse NK cells assessed as induction of killing activity against YAC-1 cells at 50 uM after 4 hrs by MTT assay; assay type: functional
Bacillaceae = assay: Inhibition of Bacillaceae alpha-amylase using starch as substrate at 100 uM preincubated for 10 mins prior substrate addition measured after 10 mins by UV-Vis spectrophotometry

| Compound | inhibition (Saccharomyces cerevisiae) | inhibition (Prunus dulcis) | inhibition (Bacillaceae) | Activity (YAC-1 [1]) | Activity (T-cell [2]) | Activity (T-cell [3]) | Activity (YAC-1 [4]) |
| --- | --- | --- | --- | --- | --- | --- | --- |
| O=C1CS[C@@H]2[C@H](O)[C@H](O)[C@H](O)CN12 | inactive | inactive | inactive | 70% | inactive | inactive | 87% |
| O=C1CS[C@@H]2[C@@H](O)[C@@H](O)[C@H](O)CN12 | inactive | inactive | inactive | inactive | inactive | inactive | inactive |
| O=C1c2cccnc2S[C@H]2[C@H](O)[C@H](O)[C@H](O)CN12 | inactive | inactive | inactive | inactive | inactive | inactive | inactive |
| O=C1c2ccccc2S[C@@H]2[C@@H](O)[C@@H](O)[C@H](O)CN12 | inactive | inactive | inactive | inactive | inactive | inactive | inactive |
| O=C1c2cccnc2S[C@@H]2[C@H](O)[C@H](O)[C@H](O)CN12 | inactive | inactive | inactive | 45% | inactive | inactive | 71% |
| O=C1c2ccccc2S[C@@H]2[C@H](O)[C@H](O)[C@H](O)CN12 | inactive | inactive | inactive | inactive | inactive | inactive | inactive |
| O=C1c2cccnc2S[C@@H]2[C@@H](O)[C@@H](O)[C@H](O)CN12 | inactive | 19% | inactive | 55% | inactive | inactive | 81% |
| O=C1CS[C@H]2[C@H](O)[C@H](O)[C@H](O)CN12 | inactive | 23% | inactive | inactive | inactive | inactive | inactive |
| O=C1c2cccnc2S[C@H]2[C@@H](O)[C@@H](O)[C@H](O)CN12 | inactive | 35% | inactive | 67% | inactive | inactive | 97% |
| O=C1c2ccccc2S[C@H]2[C@H](O)[C@H](O)[C@H](O)CN12 | inactive | inactive | inactive | inactive | inactive | inactive | inactive |
| O=C1c2ccccc2S[C@H]2[C@@H](O)[C@@H](O)[C@H](O)CN12 | inactive | inactive | inactive | 46% | inactive | inactive | 73% |

Continued, in another order:

| inhibition (Saccharomyces cerevisiae) | inhibition (Prunus dulcis) | inhibition (Bacillaceae) | Compound | Activity (YAC-1 [1]) | Activity (T-cell [2]) | Activity (T-cell [3]) | Activity (YAC-1 [4]) |
| --- | --- | --- | --- | --- | --- | --- | --- |
| inactive | inactive | inactive | O=C1CCS[C@@H]2[C@@H](O)[C@@H](O)[C@H](O)CN12 | inactive | inactive | inactive | inactive |
| inactive | inactive | inactive | O=C1CCS[C@@H]2[C@H](O)[C@H](O)[C@H](O)CN12 | inactive | inactive | inactive | inactive |
| inactive | 18% | inactive | O=C1CCS[C@H]2[C@H](O)[C@H](O)[C@H](O)CN12 | inactive | inactive | inactive | inactive |
| inactive | inactive | inactive | O=C1CCS[C@H]2[C@@H](O)[C@@H](O)[C@H](O)CN12 | 69% | inactive | inactive | 45% |
| inactive | 19% | inactive | O=C1CS[C@H]2[C@@H](O)[C@@H](O)[C@H](O)CN12 | 72% | inactive | inactive | 93% |
